Experimental data reported in patent US20240043470A1, “MACROCYCLIC COMPOUNDS AS PROTEASOME INHIBITORS” (CORNELL UNIVERSITY, priority 2017, published 2024).
Like-named read-outs stand apart in the source and are kept apart here.

Assays:
[1] = amide bond, 16-membered ring, EDCI/HOBt/DIEA, DMF
β5c of hu c-20S = β5c of hu c-20S (Homo sapiens (Human), UniProt P20618+P28074); assay: IC50 determination against β5c of human constitutive proteasome (suc-LLVY-AMC hydrolysis); type: biochemical; details: 0.2 nM c-20S, 25 μM suc-LLVY-AMC;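 note: IC50 obtained by fitting initial reaction velocities to a dose-dependent inhibition model, with SDS present as proteasome activator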
[2] = test system: IL-6 in LPS-stimulated human macrophages; assay: Inhibition of IL-6 in LPS-stimulated human macrophages (Q-PCR and ELISA); type: cell-based; details: LPS 50 ng/ml; 6 h gene expression (FIG. 1A), 24 h ELISA (FIG. 1B); compound added 15 minutes before LPS
Description: Monocytes were isolated from the blood of 2 healthy donors using CD14 magnetic beads and cultured with 20 ng/ml of MCSF for 24 hours to induce the differentiation into macrophages. 200,000 cells/wells in 96 wells plate were incubated with LPS (50 ng/ml) for 6 hours for RNA isolation and gene expression analysis (FIG. 1A) and 24 hours for ELISA (FIG. 1B). The proteasome inhibitor 4-13 used at the indicated concentration was added 15 minutes before adding LPS. At 6 hours, RNA were prepared using Qiagen RNA plus kit and cDNA were synthetized using the Thermofisher cDNA synthesis kit (FIG. 1A). Q-PCR was performed in duplicate and expression levels normalized to the level of the housekeeping gene ubiquitin. At 24 hours, supernatants were collected and IL-6 production quantified by ELISA (FIG. 1B).

β5i of hu i-20S = β5i of hu i-20S (Homo sapiens (Human), UniProt P20618+P28062); assay: IC50 determination against β5i of human immunoproteasome (Ac-ANW-AMC hydrolysis); type: biochemical; details: β5i, 0.4 nM i-20S, 15 μM Ac-ANW-AMC;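 note: enzyme activity taken as the initial reaction velocity per well, with SDS added to activate the proteasome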
[3] = from C=CCCCCC[C@H](NC(=O)[C@H](CC(=O)N1CCCC1)NC(=O)CCCC=C)C(=O)NCc1cccc2ccccc12; rcm bond; Grubbs 2nd Generation catalyst; CH2Cl2; 1.11 mM; 50.0 °C; 20.0 h
[4] = rcm bond, 16-membered ring, Grubbs II

## (5S,8S,11S)-6-Methyl-7,10-dioxo-11-(2-oxopyrrolidin-1-yl)-8-phenethyl-N-(2,2,2-trifluoroethyl)-2-oxa-6,9-diaza-1,3(1,3)-dibenzenacyclododecaphane-5-carboxamide
[1]; 18.3 mM, 25.0 °C
  ring closure, yield after HPLC: 26%

## O=C1CCCCCCCCCC[C@@H](C(=O)NCc2ccccc2F)NC(=O)[C@H](CC(=O)N2CCCC2C2CC2)N1 (stereo partly shown) [Compound 4-13]
β5c of hu c-20S
  IC50: 0.274 µM
[2]
  Inhibition of IL-6 in LPS-stimulated human macrophages: inhibition of IL-6
β5i of hu i-20S
  IC50: 0.018 µM

## (5S,8S,11S)-7,10-Dioxo-11-(2-oxopyrrolidin-1-yl)-8-(2-(piperidin-1-yl)ethyl)-N-(2,2,2-trifluoroethyl)-2-oxa-6,9-diaza-1,3(1,3)-dibenzenacyclododecaphane-5-carboxamide
[1]; 15.8 mM, 20.0 °C
  ring closure, yield after HPLC: 24.2%

## O=C1CCC/C=C\CCCCC[C@@H](C(=O)NCc2cccc3ccccc23)NC(=O)[C@H](CC(=O)N2CCCC2)N1 [Compound 4-05, (2S,5S,11Z)—N-(1-Naphthylmethyl)-3,16-dioxo-2-(2-oxo-2-pyrrolidin-1-yl-ethyl)-1,4-diazacyclohexadec-11-ene-5-carboxamide]
β5c of hu c-20S
  IC50: > 100 µM
[3]
  ring closure, yield of all isomers: 36%
β5i of hu i-20S
  IC50: 4.36 µM
[4]; from (hex-5-enoyl)-Asp(pyrrolidin-1-yl amide)-((2S)-2-aminonon-8-enoic acid)-NHCH2(1-naphthyl)?, CH2Cl2, 1.11 mM, 50.0 °C
  ring closure, isolated yield: 36%

## (7S,10S,13S,E)-13-Acetamido-9,12-dioxo-10-phenethyl-N-(2,2,2-trifluoroethyl)-2-oxa-8,11-diaza-1(1,3)-benzenacyclotetradecaphan-4-ene-7-carboxamide
[4]; DCM, 5.3 mM, 40.0 °C
  ring closure, isolated yield: 47%
